{"source": "patent US20260308186A1", "about": "“STAT DEGRADERS AND USES THEREOF” (Recludix Pharma, Inc., priority 2023, published 2026)", "key": {"[1]": {"target": "T1, STAT3 (Homo sapiens, UniProt P40763)", "T1 construct": "Recombinant STAT3 protein (STAT3(G127-1722))", "T1 sequence (P40763 127-722 limits assumed)": "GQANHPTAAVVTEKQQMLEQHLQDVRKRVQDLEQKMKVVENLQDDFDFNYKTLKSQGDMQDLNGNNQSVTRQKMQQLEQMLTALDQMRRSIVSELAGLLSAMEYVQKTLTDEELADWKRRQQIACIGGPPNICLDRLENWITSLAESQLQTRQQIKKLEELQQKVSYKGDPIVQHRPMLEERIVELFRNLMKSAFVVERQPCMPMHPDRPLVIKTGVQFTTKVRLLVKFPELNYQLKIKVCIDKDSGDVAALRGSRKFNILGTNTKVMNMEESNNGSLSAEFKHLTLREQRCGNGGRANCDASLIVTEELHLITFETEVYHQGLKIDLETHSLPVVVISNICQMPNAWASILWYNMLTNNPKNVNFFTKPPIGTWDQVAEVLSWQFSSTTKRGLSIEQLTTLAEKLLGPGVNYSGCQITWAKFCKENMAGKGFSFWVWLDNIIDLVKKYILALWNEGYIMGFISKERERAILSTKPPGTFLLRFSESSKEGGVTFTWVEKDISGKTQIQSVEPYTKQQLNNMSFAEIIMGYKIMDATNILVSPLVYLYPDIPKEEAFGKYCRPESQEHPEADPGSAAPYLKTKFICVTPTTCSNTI", "test": "STAT3 Fluorescence Polarization (FP) Assay", "type": "binding", "settings": "recombinant STAT3 25 nM; probe 5-FAM-GpYLPQTV-NH2 2 nM; 45 min, room temperature; read-out: STAT3 FP IC50", "description": "STAT3 Fluorescence Polarization (FP) Assay\nAn FP assay was developed to determine IC50 values for test substances. Recombinant STAT3 protein (STAT3(G127-1722)) at 25 nM was combined with a fluorescently labeled, phosphotyrosine peptide probe (5-FAM-GpYLPQTV-NH2) at 2 nM in FP buffer (10 mM HEPES pH 7.4, 50 mM NaCl, 1 mM EDTA, 0.05% Tween 20.2 mM DTT). 50 μL of STAT3-probe mixture was added to serial diluted compounds in black, 96-well plates (Greiner BioOne 655076) to a final concentration of 1% DMSO. Reaction components were mixed, and FP was measured after 45-minute incubation at room temperature using a Tecan Spark multimode plate reader. FP signal (mP) was plotted against the log concentration of the test substances and IC50 values were calculated by nonlinear regression analysis using GraphPad Prism software. For STAT3 FP assay. A=≤100 nM; B=>100-1000 nM; C=>1-10 μM; and D=>10 μM."}, "[2]": {"target": "T2, STAT6 (Homo sapiens, UniProt P42226)", "T2 construct": "Recombinant STAT6 protein (STAT6(W123-T658))", "T2 sequence (P42226 123-658)": "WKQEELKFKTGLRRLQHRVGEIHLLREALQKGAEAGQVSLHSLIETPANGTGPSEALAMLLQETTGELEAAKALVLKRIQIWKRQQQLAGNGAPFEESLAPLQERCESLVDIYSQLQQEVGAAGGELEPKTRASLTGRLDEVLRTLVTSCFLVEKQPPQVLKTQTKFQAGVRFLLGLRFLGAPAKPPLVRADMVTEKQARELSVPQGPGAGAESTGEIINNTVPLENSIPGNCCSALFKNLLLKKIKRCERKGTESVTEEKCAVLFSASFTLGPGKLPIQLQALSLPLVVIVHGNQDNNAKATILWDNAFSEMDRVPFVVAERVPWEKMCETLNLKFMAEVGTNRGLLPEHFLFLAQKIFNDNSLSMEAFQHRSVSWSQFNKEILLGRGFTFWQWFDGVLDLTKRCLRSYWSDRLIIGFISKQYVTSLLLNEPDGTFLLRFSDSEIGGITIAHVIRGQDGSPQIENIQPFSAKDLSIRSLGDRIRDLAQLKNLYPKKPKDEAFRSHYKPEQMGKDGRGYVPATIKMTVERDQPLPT", "test": "STAT6 Fluorescence Polarization (FP) Assay", "type": "binding", "settings": "recombinant STAT6(W123-T658) 250 nM; probe 5-FAM-Ap[…]-NH2 2 nM; 45 min, room temperature; read-out: STAT6 FP IC50", "description": "STAT6 Fluorescence Polarization (FP) Assay\nAn FP assay was developed to determine IC50 values for test substances. Recombinant STAT6 protein (STAT6(W123-T658)) at 250 nM was combined with a fluorescently labeled, phosphotyrosine peptide probe (5-FAM-Ap[…]-NH2) at 2 nM in FP buffer (10 mM HEPES pH 7.4, 50 mM NaCl, 1 mM EDTA, 0.05% Tween 20, 2 mM DTT), 50 μL of STAT6-probe mixture was added to serial diluted compounds in black, 96-well plates (Greiner BioOne 655076) to a final concentration of 1% DMSO. Reaction components were mixed, and FP was measured after 45-minute incubation at room temperature using a Tecan Spark multimode plate reader. FP signal (mP) was plotted against the log concentration of the test substances and IC50 values were calculated by nonlinear regression analysis using GraphPad Prism software. For STAT6 FP assay. A=≤300 nM; B=>300-3000 nM; C=>3-30 μM; and D=>30 μM."}, "[3]": {"target": "T3, pSTAT6 (Homo sapiens, UniProt P42226)", "T3 construct": "pY641-STAT6 MSD read-out", "T3 sequence (P42226 1-847)": "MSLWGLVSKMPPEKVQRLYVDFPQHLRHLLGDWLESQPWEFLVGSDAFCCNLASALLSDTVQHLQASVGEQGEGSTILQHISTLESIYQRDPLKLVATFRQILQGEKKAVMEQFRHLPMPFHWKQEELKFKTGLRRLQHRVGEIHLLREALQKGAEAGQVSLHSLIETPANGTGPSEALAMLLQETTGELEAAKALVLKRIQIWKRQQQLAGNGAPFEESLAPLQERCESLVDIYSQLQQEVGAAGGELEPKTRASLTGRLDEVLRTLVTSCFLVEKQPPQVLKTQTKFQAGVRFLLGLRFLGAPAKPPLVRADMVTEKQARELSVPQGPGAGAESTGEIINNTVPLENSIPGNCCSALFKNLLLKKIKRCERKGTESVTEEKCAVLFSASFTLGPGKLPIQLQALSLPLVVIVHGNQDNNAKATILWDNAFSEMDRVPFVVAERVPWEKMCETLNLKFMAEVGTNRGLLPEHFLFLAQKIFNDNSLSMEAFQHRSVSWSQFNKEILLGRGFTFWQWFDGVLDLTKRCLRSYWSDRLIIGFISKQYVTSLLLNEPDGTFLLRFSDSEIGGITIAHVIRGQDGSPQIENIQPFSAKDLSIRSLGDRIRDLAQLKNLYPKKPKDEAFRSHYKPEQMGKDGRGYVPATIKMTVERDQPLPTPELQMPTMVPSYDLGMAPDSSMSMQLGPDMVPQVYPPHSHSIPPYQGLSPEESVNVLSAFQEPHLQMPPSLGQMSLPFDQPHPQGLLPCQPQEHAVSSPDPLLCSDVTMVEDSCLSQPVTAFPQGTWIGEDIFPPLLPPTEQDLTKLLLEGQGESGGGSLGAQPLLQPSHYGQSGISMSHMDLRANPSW", "test": "MSD-pSTAT-PBMC Assay, pSTAT6 (IL-4 stimulated PBMC)", "type": "cell-based", "settings": "compound 3 hrs, then 1 ng/mL IL-4 for 10 min, pY641-STAT6, read-out: pSTAT6 IC50", "outline": "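Human PBMC were recovered overnight, treated 3 h with compound, then stimulated for 10 min with 10 ng/mL IL-6 (pSTAT3) or 1 ng/mL IL-4 (pSTAT6). Lysates were read by MSD sandwich immunoassay, with total STAT capture and pY705-STAT3 or pY641-STAT6 detection. Signal minus unstimulated wells was normalized to DMSO, and IC50 came from a variable-slope fit.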"}}, "data": [{"compound": "Cc1ccc2onc(C(=O)N3CC[C@H]4CC[C@@H](C(=O)Nc5cccc6c5CN(C5CCC(=O)NC5=O)C6=O)N4C(=O)[C@@H](NC(=O)c4ccc5ccc(C(F)(F)P(=O)(O)O)cc5c4)C3)c2c1", "note": "(stereo partly drawn) [Compound 35, ((7-(((5S,8S,10aR)-8-((2-(2,6-dioxopiperidin-3-yl)-1-oxoisoindolin-4-yl)carbamoyl)-3-(5-methylbenzo[d]isoxazole-3-carbonyl)-6-oxodecahydropyrrolo[1,2-a][1,5]diazocin-5-yl)carbamoyl)naphthalen-2-yl)difluoromethyl)phosphonic acid]", "values": [{"measurement": "IC50", "setting": "[1]", "result": "> 10", "unit": "µM"}, {"measurement": "IC50", "setting": "[2]", "result": "< 0.3", "unit": "µM"}, {"measurement": "IC50", "setting": "[3]", "result": "> 3", "unit": "µM"}]}, {"compound": "Cc1ccc2onc(C(=O)N3CC[C@H]4CC[C@@H](C(=O)N5CCN(c6cc(C(C(=O)N7C[C@H](O)C[C@H]7C(=O)N[C@H](C)c7ccc(-c8scnc8C)cc7)C(C)C)on6)CC5)N4C(=O)[C@@H](NC(=O)c4ccc5ccc(C(F)(F)P(=O)(O)O)cc5c4)C3)c2c1", "note": "(stereo partly drawn) [Compound 33, (difluoro(7-(((5S,8S,10aR)-8-(4-(5-(1-((2S,4R)-4-hydroxy-2-(((R)-1-(4-(4-methylthiazol-5-yl)phenyl)ethyl)carbamoyl)pyrrolidin-1-yl)-3-methyl-1-oxobutan-2-yl)isoxazol-3-yl)piperazine-1-carbonyl)-3-(5-methylbenzo[d]isoxazole-3-carbonyl)-6-oxodecahydropyrrolo[1,2-a][1,5]diazocin-5-yl)carbamoyl)naphthalen-2-yl)methyl)phosphonic acid]", "values": [{"measurement": "IC50", "setting": "[1]", "result": "1 to 10", "unit": "µM"}, {"measurement": "IC50", "setting": "[2]", "result": "< 0.3", "unit": "µM"}, {"measurement": "IC50", "setting": "[3]", "result": "> 3", "unit": "µM"}]}, {"compound": "Cc1ccc2onc(C(=O)N3CC[C@H]4CC[C@@H](C(=O)N(C)CCC#Cc5cccc6c5CN(C5CCC(=O)NC5=O)C6=O)N4C(=O)[C@@H](NC(=O)c4ccc5ccc(C(F)(F)P(=O)(O)O)cc5c4)C3)c2c1", "note": "(stereo partly drawn) [Compound 28, ((7-(((5S,8S,10aR)-8-((4-(2-(2,6-dioxopiperidin-3-yl)-1-oxoisoindolin-4-yl)but-3-yn-1-yl)(methyl)carbamoyl)-3-(5-methylbenzo[d]isoxazole-3-carbonyl)-6-oxodecahydropyrrolo[1,2-a][1,5]diazocin-5-yl)carbamoyl)naphthalen-2-yl)difluoromethyl)phosphonic acid]", "values": [{"measurement": "IC50", "setting": "[1]", "result": "1 to 10", "unit": "µM"}, {"measurement": "IC50", "setting": "[2]", "result": "< 0.3", "unit": "µM"}, {"measurement": "IC50", "setting": "[3]", "result": "> 3", "unit": "µM"}]}, {"compound": "Cc1ccc2onc(C(=O)N3CC[C@H]4CC[C@@H](C(=O)N(C)CCCC(=O)N[C@H](C(=O)N5C[C@H](O)C[C@H]5C(=O)N[C@@H](C)c5ccc(-c6scnc6C)cc5)C(C)(C)C)N4C(=O)[C@@H](NC(=O)c4ccc5ccc(C(F)(F)P(=O)(O)O)cc5c4)C3)c2c1", "note": "[Compound 29, (difluoro(7-(((5S,8S,10aR)-8-((4-(((S)-1-((2S,4R)-4-hydroxy-2-(((S)-1-(4-(4-methylthiazol-5-yl)phenyl)ethyl)carbamoyl)pyrrolidin-1-yl)-3,3-dimethyl-1-oxobutan-2-yl)amino)-4-oxobutyl)(methyl)carbamoyl)-3-(5-methylbenzo[d]isoxazole-3-carbonyl)-6-oxodecahydropyrrolo[1,2-a][1,5]diazocin-5-yl)carbamoyl)naphthalen-2-yl)methyl)phosphonic acid]", "values": [{"measurement": "IC50", "setting": "[1]", "result": "1 to 10", "unit": "µM"}, {"measurement": "IC50", "setting": "[2]", "result": "< 0.3", "unit": "µM"}, {"measurement": "IC50", "setting": "[3]", "result": "> 3", "unit": "µM"}]}, {"compound": "Cc1ccc2onc(C(=O)N3CC[C@H]4CC[C@@H](C(=O)N(C)CCCCOc5ccc(C6CCC(=O)NC6=O)cc5)N4C(=O)[C@@H](NC(=O)c4ccc5ccc(C(F)(F)P(=O)(O)O)cc5c4)C3)c2c1", "note": "(stereo partly drawn) [Compound 30, ((7-(((5S,8S,10aR)-8-((4-(4-(2,6-dioxopiperidin-3-yl)phenoxy)butyl)(methyl)carbamoyl)-3-(5-methylbenzo[d]isoxazole-3-carbonyl)-6-oxodecahydropyrrolo[1,2-a][1,5]diazocin-5-yl)carbamoyl)naphthalen-2-yl)difluoromethyl)phosphonic acid]", "values": [{"measurement": "IC50", "setting": "[1]", "result": "1 to 10", "unit": "µM"}, {"measurement": "IC50", "setting": "[2]", "result": "< 0.3", "unit": "µM"}, {"measurement": "IC50", "setting": "[3]", "result": "> 3", "unit": "µM"}]}, {"compound": "Cc1ccc2onc(C(=O)N3CC[C@H]4CC[C@@H](C(=O)NCCOc5cc(C(C(=O)N6C[C@H](O)C[C@H]6C(=O)N[C@H](C)c6ccc(-c7scnc7C)cc6)C(C)C)on5)N4C(=O)[C@@H](NC(=O)c4ccc5ccc(C(F)(F)P(=O)(O)O)cc5c4)C3)c2c1", "note": "(stereo partly drawn) [Compound 32, (difluoro(7-(((5S,8S,10aR)-8-((2-((5-(1-((2S,4R)-4-hydroxy-2-(((R)-1-(4-(4-methylthiazol-5-yl)phenyl)ethyl)carbamoyl)pyrrolidin-1-yl)-3-methyl-1-oxobutan-2-yl)isoxazol-3-yl)oxy)ethyl)carbamoyl)-3-(5-methylbenzo[d]isoxazole-3-carbonyl)-6-oxodecahydropyrrolo[1,2-a][1,5]diazocin-5-yl)carbamoyl)naphthalen-2-yl)methyl)phosphonic acid]", "values": [{"measurement": "IC50", "setting": "[1]", "result": "1 to 10", "unit": "µM"}, {"measurement": "IC50", "setting": "[2]", "result": "0.3 to 3", "unit": "µM"}, {"measurement": "IC50", "setting": "[3]", "result": "> 3", "unit": "µM"}]}]}
